Reference: patent US20170281507A1, “Peptides and Their Use in the Treatment of Skin” (AVON PRODUCTS, INC., priority 2014, published 2017)
Peptide text beside a SMILES is read from it.

System: Human dermal fibroblast cells
Test: Hyaluronic acid (HA) production in human dermal fibroblast cells, HA ELISA of the media
Format: cell-based
Details: percent change of HA production relative to vehicle control, peptide concentration 0.001%, 48h treatment in DMEM media without FBS, secreted HA in media
Procedure: Human dermal fibroblast cells were grown in a 96 well plate in DMEM media (available from Corning, N.Y.) supplemented with 10% Fetal Bovine Serum (FBS) and L-glutamine (0.07×10^5 cells/plate). After reaching about 75% confluence, cells were transferred into DMEM media without FBS and incubated for 4-6 hours. Next, cells were treated with peptide of Formula I at 0.00001%, 0.0001%, 0.001% final concentration in DMEM media without FBS for 48h. After treatment the media were collected, and cell viability was measured using MTT. Amount of secreted Hyaluronic Acid (HA) was tested in the media using HA Elisa kit (available from Corgenix, Broomfield, Colo.).
Results are summarized in Table 1 below as percent change of HA production relative to vehicle control: […]

In the case of CC(N)C(=O)NC(CCC(=O)O)C(=O)NC(CS)C(=O)NC(CCCCN)C(=O)O (stereo not drawn) [AECK (SEQ ID NO: 1), Ala-Glu-Cys-Lys] (H-AECK-OH; configuration not given here), the “Increase in HA Production” value is reported as “+90-150%” and the “Increase in HA Production” value (listed as peptide of Formula I) is reported as 90-150%.
